{"source": "patent US9927440B2", "about": "“Protein engineering” (priority 2009, dated 2018)", "key": {"[1]": {"experiment": "Intrinsic reaction rate of IAM-biotin with unprotected cysteine (GSH), iodide absorbance at 226 nm", "assay_type": "physicochemical", "settings": "pH 7.6; for pseudo-first order rate constant (kint): 80 μM IAM-biotin, 800 μM GSH", "experimental": "FIGS. 10A-C show the determination of kint in model compounds and unfolded SN.\nThe iodoacetyl moiety of IAM-biotin (EZ-Link™ Iodoacetyl-PEG2-Biotin; Pierce; 21334) reacts primarily with free thiolate to form a stable thioether bond. Because thiolate was the predominant reactive species, the reaction rate was dependent on the pKa of cysteine (˜8.6) relative to solution pH (which was set to 7.6). The kint values reported here were only valid for pH 7.6. kint was determined for an unprotected cysteine by reacting IAM-biotin with L-glutathione (GSH) (Sigma; G4251) and monitoring the absorbance of the liberated iodide ion (ϵ226=12,600M^−1 cm^−1 at 226 nm) as function of time. Second-order rate constants for the reaction of IAM-biotin with GSH were measured under pseudo first-order conditions at 25° C., 35° C., 45° C. and 55° C. (80 μM IAM-biotin, 800 μM GSH, 25 mM MOPS, 100 mM KCl and pH 7.6) and analyzed in terms of the Arrhenius equation (see FIG. 10)."}, "[2]": {"target": "T1, E. coli ribose-binding protein (ecRBP) (Escherichia coli, UniProt P02925, A213C/T28W)", "T1 construct": "made in house; host or cells: cell-free TnT, E. coli BL21 Star (DE3) extract", "T1 sequence (P02925 other isoform, or with tags, fused parts or gaps T28W/A213C)": "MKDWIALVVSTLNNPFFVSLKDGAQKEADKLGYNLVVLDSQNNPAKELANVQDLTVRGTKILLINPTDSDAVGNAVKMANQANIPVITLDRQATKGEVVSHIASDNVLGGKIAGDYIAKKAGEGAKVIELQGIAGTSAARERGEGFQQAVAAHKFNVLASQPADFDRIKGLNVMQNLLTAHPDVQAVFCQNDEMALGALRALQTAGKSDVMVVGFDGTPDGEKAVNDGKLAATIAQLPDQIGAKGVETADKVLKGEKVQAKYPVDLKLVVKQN", "experiment": "biochemical", "experimental": "(§1) The rate of labeling of internal cysteine residues was measured by reacting 30-50 μL of ˜0.1 μM protein sample (i.e., ˜3-5 picomoles of protein) with excess IAM-biotin (1 mM unless otherwise stated) at constant temperature (25 mM MOPS, 100 mM KCl and pH 7.6). 5 μL aliquots were removed at fixed time intervals and quenched by addition of 2 μL 2M β-mercaptoethanol (Sigma; M6250). Following addition of 5 μL LDS-buffer (Invitrogen; NP0007) and heating for 2 min at 85° C., (un)labeled protein species were resolved by SDS-PAGE (Novex 4-12% Bis-Tris Gels; Invitrogen; NP0321). […] For the experiment shown in FIG. 8A, ecRBP variant L62C was modified with 1 mM IAM-biotin at 47.1° C., pH 7.6. […] Streptavidin was used to alter the electrophoretic mobility of the labeled protein (Streptavidin bands indicated by a, b, and c). […] Error bars represent the estimated uncertainty of the integrated band intensities (˜2%). For the experiment shown in FIG. 8B, SN variant L36C was labeled with IAM-biotin at 35.3° C., pH 7.6. […] At 29.3° C., 26.3° C. and 23.3° C., kint and klabel were manipulated by increasing the concentration of IAM-biotin from 1 mM to 3.16 mM.\n(§2) The modulation of protein stability by binding of metals, ligands, activators, inhibitors, substrates, nucleic acid or other proteins can be used to measure binding affinities within a GUWO. For a protein with a single binding site, the free energy of ligand binding was described by\n(§3) [formula] where P was the binding polynomial, [L] the total ligand concentration, and KD the apparent dissociation constant of the ligand. For proteins with multiple ligand-binding sites, P was expanded as described in Equations 21-36 below.\n(§4) By thermodynamic linkage, any change in ΔGU caused predominantly by ligand binding (Scheme 1) is ΔGbind=ΔΔ^LGU=Δ^LGU−Δ^apoGU [20] where Δ^LGU and Δ^apoGU were the stability of the protein in the presence of absence of ligand respectively. Equation 20 was used to obtain apparent KD values from either the ligand dependence of ΔΔGU (by curve fitting), or from a single measurement of ΔΔGU."}, "[3]": {"target": "T2, E. coli ribose-binding protein (ecRBP) (Escherichia coli, UniProt P02925, L86C/T28W)", "T2 construct": "made in house; host or cells: cell-free TnT, E. coli BL21 Star (DE3) extract", "T2 sequence (P02925 other isoform, or with tags, fused parts or gaps T28W/L86C)": "as the sequence (P02925 other isoform, or with tags, fused parts or gaps T28W/A213C) above, with L62C, C189A counted along it", "experiment": "biochemical", "experimental": "as §1, §2, §3, §4"}, "[4]": {"settings": "second-order rate constants 25-55 °C"}}}
{"smiles": "O=C(CI)NCCOCCOCCNC(=O)CCCC[C@@H]1SC[C@@H]2NC(=O)N[C@@H]21", "note": "[IAM-biotin, EZ-Link™ Iodoacetyl-PEG2-Biotin]", "values": [{"measurement": "pseudo-first order rate constant (kint)", "setting": "[1]; 25 °C, 25 mM MOPS, 100 mM KCl", "result": 0.00062, "unit": "s⁻¹"}, {"measurement": "second order rate constant (k=kint/[GSH])", "setting": "[1]; 25 °C", "result": 0.78, "unit": "M⁻¹ s⁻¹"}, {"measurement": "pseudo-first order rate constant (kint)", "setting": "[1]; 35 °C", "result": 0.00016, "unit": "s⁻¹"}, {"measurement": "second order rate constant (k=kint/[GSH])", "setting": "[1]; 35 °C", "result": 2.0, "unit": "M⁻¹ s⁻¹"}, {"measurement": "pseudo-first order rate constant (kint)", "setting": "[1]; 45 °C", "result": 0.0035, "unit": "s⁻¹"}, {"measurement": "second order rate constant (k=kint/[GSH])", "setting": "[1]; 45 °C", "result": 4.4, "unit": "M⁻¹ s⁻¹"}, {"measurement": "pseudo-first order rate constant (kint)", "setting": "[1]; 55 °C", "result": 0.0077, "unit": "s⁻¹"}, {"measurement": "second order rate constant (k=kint/[GSH])", "setting": "[1]; 55 °C", "result": 9.6, "unit": "M⁻¹ s⁻¹"}, {"measurement": "Arrhenius pre-exponential factor (ln A), IAM-biotin + GSH", "setting": "[1]; [4]", "result": "27.1±0.5"}, {"measurement": "Arrhenius slope (−Ea/R), IAM-biotin + GSH", "setting": "[1]; [4]", "result": "−8.2×10^3±0.1×10^3"}]}
{"smiles": "O=C[C@H](O)[C@H](O)[C@H](O)CO", "note": "[ribose, reference compound]", "values": [{"measurement": "Kd", "setting": "[2]", "result": "1800 ± 100", "unit": "nM"}, {"measurement": "Kd", "setting": "[3]", "result": "2800 ± 200", "unit": "nM"}]}
